Source: ChEMBL document CHEMBL6078630, “Design, synthesis, and bioactivity investigation of novel cyclic lipopeptide antibiotics targeting top-priority multidrug-resistant gram-negative bacteria” (Eur J Med Chem, 2024)
pKd: −log10 of the molar value. ≈ marks a conversion by molar mass, not a printed value. Calls of active or inactive are those of the source. The calls are words filed in the database; no cut-off is given here. Bridge positions count the residues as written; N and C are the ends. Square brackets hold non-standard residues; d marks the D form. Peptide text beside a SMILES is read from it. * marks the point of attachment. Heptanoyl(6-Me) = CC(C)CCCCC(=O)*; Dab = NCC[C@H](N)C(=O)O; Dap = NC[C@H](N)C(=O)O

What was measured:
Klebsiella pneumoniae [1] = experiment: Antibacterial activity against carbapenem-resistant Klebsiella pneumoniae clinical isolate ets40 assessed as inhibition of bacterial growth incubated for 24 hrs by CLSI protocol based broth microdilution method; type: functional
Pseudomonas aeruginosa [2] = experiment: Antibacterial activity against carbapenem-resistant Pseudomonas aeruginosa clinical isolate ets33 assessed as inhibition of bacterial growth incubated for 24 hrs by CLSI protocol based broth microdilution method; type: functional
Escherichia coli [3] = experiment: Antibacterial activity against Escherichia coli ATCC BAA-2523 infected in ICR mouse model administered intravenously with compound at 1 and 6 hrs post-infection and measured after 7 days; type: functional; settings: ATCC BAA-2523, 168 h, route iv, time 7 day
Escherichia coli [4] = experiment: Antibacterial activity against carbapenem-resistant Escherichia coli clinical isolate 231109W005 assessed as inhibition of bacterial growth incubated for 24 hrs by CLSI protocol based broth microdilution method; type: functional
Cell membrane = experiment: Disruption of cell membrane integrity in Pseudomonas aeruginosa ATCC 27853 assessed as morphological changes at 16 microg/ml incubated for 2 hrs by scanning electron microscopic analysis; settings: dose 16.0 µg/ml
Pseudomonas aeruginosa [5] = experiment: Potentiation of rifampicin induced antibacterial activity against Pseudomonas aeruginosa ATCC 27853 assessed as rifampicin MIC at 0.016 microg/ml incubated 24 hrs by cation adjusted Mueller-Hinton broth based method; type: functional; settings: dose 0.016 µg/ml
Pseudomonas aeruginosa [6] = experiment: Potentiation of rifampicin induced antibacterial activity against Pseudomonas aeruginosa ATCC 27853 assessed as rifampicin MIC at 0.25 microg/ml incubated 24 hrs by cation adjusted Mueller-Hinton broth based method; type: functional; settings: dose 0.25 µg/ml
Acinetobacter baumannii [7] = experiment: Antibacterial activity against carbapenem-resistant Acinetobacter baumannii clinical isolate ets178 assessed as inhibition of bacterial growth incubated for 24 hrs by CLSI protocol based broth microdilution method; type: functional
Klebsiella pneumoniae [8] = experiment: Antibacterial activity against carbapenem-resistant Klebsiella pneumoniae clinical isolate KPN+19-15 assessed as inhibition of bacterial growth incubated for 16 to 20 hrs by CLSI protocol based broth microdilution method; type: functional; settings: time 16-20 hrs
[9] = Toxicity in ICR mouse assessed as adverse effect at 15.4 mg/kg, iv administered as single dose; type: organism-based; settings: in vivo
Pseudomonas aeruginosa [10] = experiment: Potentiation of rifampicin induced antibacterial activity against Pseudomonas aeruginosa ATCC 27853 assessed as rifampicin MIC at 0.008 microg/ml incubated 24 hrs by cation adjusted Mueller-Hinton broth based method; type: functional; settings: dose 0.008 µg/ml
[11] = Renal cytotoxicity against HK-2 cells incubated for 72 hrs by CCK8 assay; type: toxicity, cell-based; settings: human
Klebsiella pneumoniae [12] = experiment: Antibacterial activity against carbapenem-resistant Klebsiella pneumoniae clinical isolate KPN+19-15 infected in ICR mouse model assessed as survival rate at 2 mg/kg, iv administered at 1 and 6 hrs post-infection and measured after 7 days relative to control; type: functional; settings: 168 h, time 7 day
[13] = AUC (0 to infinity) in male Sprague-Dawley rat at 3 mg/kg, iv measured after 24 hrs by LC-MS/MS analysis; type: ADME, organism-based; settings: in vivo
Acinetobacter baumannii [14] = experiment: Antibacterial activity against Acinetobacter baumannii NCTC 13304 (OXA-27) assessed as inhibition of bacterial growth incubated for 16 to 20 hrs by CLSI protocol based broth microdilution method; type: functional; settings: time 16-20 hrs
Lipopolysaccharide (LPS) [15] = experiment: Binding affinity to Escherichia coli LPS assessed as dissociation constant by SPR analysis
Klebsiella pneumoniae [16] = experiment: Antibacterial activity against carbapenem-resistant Klebsiella pneumoniae clinical isolate ets78 assessed as inhibition of bacterial growth incubated for 24 hrs by CLSI protocol based broth microdilution method; type: functional
Pseudomonas aeruginosa [17] = experiment: Antibacterial activity against carbapenem-resistant Pseudomonas aeruginosa clinical isolate ets84 assessed as inhibition of bacterial growth incubated for 24 hrs by CLSI protocol based broth microdilution method; type: functional
[18] = Half-life in male Sprague-Dawley rat at 3 mg/kg, iv measured after 24 hrs by LC-MS/MS analysis; type: ADME, organism-based; settings: in vivo
[19] = Nephrotoxicity against Sprague-Dawley rat assessed as increase in BUN level at 4 mg/kg, iv administered for 7 days by fully automated biochemistry analyzer XR200PLUS; type: toxicity, organism-based; settings: in vivo, 168 h, time 7 day
Pseudomonas aeruginosa [20] = experiment: Potentiation of rifampicin induced antibacterial activity against Pseudomonas aeruginosa ATCC 27853 assessed as rifampicin MIC at 0.125 microg/ml incubated 24 hrs by cation adjusted Mueller-Hinton broth based method; type: functional; settings: dose 0.125 µg/ml
Acinetobacter baumannii [21] = experiment: Antibacterial activity against carbapenem-resistant Acinetobacter baumannii clinical isolate ets123 assessed as inhibition of bacterial growth incubated for 24 hrs by CLSI protocol based broth microdilution method; type: functional
Acinetobacter baumannii [22] = experiment: Antibacterial activity against carbapenem-sensitive Acinetobacter baumannii clinical isolate 19-1 assessed as inhibition of bacterial growth incubated for 16 to 20 hrs by CLSI protocol based broth microdilution method; type: functional; settings: time 16-20 hrs
Klebsiella pneumoniae [23] = experiment: Antibacterial activity against carbapenem-resistant Klebsiella pneumoniae clinical isolate KPN+19-15 infected in ICR mouse model administered intravenously with compound at 1 and 6 hrs post-infection and measured after 7 days; type: functional; settings: 168 h, route iv, time 7 day
Acinetobacter baumannii [24] = experiment: Antibacterial activity against carbapenem-resistant Acinetobacter baumannii clinical isolate ets104 assessed as inhibition of bacterial growth incubated for 24 hrs by CLSI protocol based broth microdilution method; type: functional
Pseudomonas aeruginosa [25] = experiment: Antibacterial activity against carbapenem-resistant Pseudomonas aeruginosa clinical isolate ets49 assessed as inhibition of bacterial growth incubated for 24 hrs by CLSI protocol based broth microdilution method; type: functional
Klebsiella pneumoniae [26] = experiment: Antibacterial activity against carbapenem-resistant Klebsiella pneumoniae ATCC BAA-1705 infected in ICR mouse model assessed as survival rate at 2 mg/kg, iv administered at 1 and 6 hrs post-infection and measured after 7 days relative to control; type: functional; settings: time 7 day
Lipopolysaccharide (LPS) [27] = experiment: Binding affinity to Pseudomonas aeruginosa LPS assessed as dissociation constant by SPR analysis
Acinetobacter baumannii [28] = experiment: Antibacterial activity against carbapenem-resistant Acinetobacter baumannii NCTC13304 infected in ICR mouse model assessed as survival rate at 3 mg/kg, iv administered at 1 and 6 hrs post-infection and measured after 7 days relative to control; type: functional; settings: NCTC13304, 168 h, time 7 day
Escherichia coli [29] = experiment: Antibacterial activity against carbapenem-resistant Escherichia coli ATCC BAA-2340 assessed as inhibition of bacterial growth incubated for 16 to 20 hrs by CLSI protocol based broth microdilution method; type: functional; settings: time 16-20 hrs
Pseudomonas aeruginosa [30] = experiment: Potentiation of rifampicin induced antibacterial activity against Pseudomonas aeruginosa ATCC 27853 assessed as rifampicin MIC at 0.06 microg/ml incubated 24 hrs by cation adjusted Mueller-Hinton broth based method; type: functional; settings: dose 0.06 µg/ml
Klebsiella pneumoniae [31] = experiment: Antibacterial activity against carbapenem-resistant Klebsiella pneumoniae clinical isolate ets74 assessed as inhibition of bacterial growth incubated for 24 hrs by CLSI protocol based broth microdilution method; type: functional
Pseudomonas aeruginosa [32] = experiment: Antibacterial activity against Pseudomonas aeruginosa ATCC 27853 infected in ICR mouse model infected in ICR mouse model assessed as survival rate at 10 mg/kg, iv administered at 1 and 6 hrs post-infection and measured after 7 days relative to control; type: functional; settings: ATCC 27853, 168 h, time 7 day
[33] = Volume of distribution in male Sprague-Dawley rat at 3 mg/kg, iv measured after 24 hrs by LC-MS/MS analysis; type: ADME, organism-based; settings: in vivo
Pseudomonas aeruginosa [34] = experiment: Antibacterial activity against carbapenem-resistant Pseudomonas aeruginosa clinical isolate ets55 assessed as inhibition of bacterial growth incubated for 24 hrs by CLSI protocol based broth microdilution method; type: functional

## CC(C)CCCCC(=O)N[C@@H](CCN)C(=O)N[C@H](C(=O)N[C@@H](CN)C(=O)N[C@H]1CCNC(=O)[C@H]([C@@H](C)O)NC(=O)[C@H](CCN)NC(=O)[C@H](CCN)NC(=O)[C@H]([C@@H](C)O)NC(=O)[C@@H](Cc2ccccc2)NC(=O)[C@H](CCN)NC1=O)[C@@H](C)O ({Heptanoyl(6-Me)}-[Dab]T[Dap][Dab][Dab][dF]T[Dab][Dab]T; lactam 4-C)
Klebsiella pneumoniae [1]
  MIC: 0.25 µg/mL (≈ 0.215 µM)
Pseudomonas aeruginosa [2]
  MIC: 0.5 µg/mL (≈ 0.43 µM)
Escherichia coli [3]
  ED50: 1.86 mg/kg
Escherichia coli [4]
  MIC: < 0.06 µg/mL
Cell membrane
  Activity: Active
Pseudomonas aeruginosa [5]
  MIC: 32 µg/mL
Pseudomonas aeruginosa [6]
  MIC: ≤ 0.06 µg/mL
Acinetobacter baumannii [7]
  MIC: 0.5 µg/mL (≈ 0.43 µM)
Klebsiella pneumoniae [8]
  MIC: ≤ 0.03 µg/mL
[9]
  Activity: Non-toxic
Pseudomonas aeruginosa [10]
  MIC: 32 µg/mL
[11]
  IC50 at 72 h: > 500 µg/mL
Klebsiella pneumoniae [12]
  survival at 2 mg/kg: 100%
[13]
  AUC(0-inf): 8280 ng·h/mL
Acinetobacter baumannii [14]
  MIC: ≤ 0.03 µg/mL
Lipopolysaccharide (LPS) [15]
  pKd: 7.52
Klebsiella pneumoniae [16]
  MIC: 0.5 µg/mL (≈ 0.43 µM)
Pseudomonas aeruginosa [17]
  MIC: 0.5 µg/mL (≈ 0.43 µM)
[18]
  half-life: 2.22 h
[19]
  Activity: Non-toxic
Pseudomonas aeruginosa [20]
  MIC: ≤ 0.06 µg/mL
Acinetobacter baumannii [21]
  MIC: 0.5 µg/mL (≈ 0.43 µM)
Acinetobacter baumannii [22]
  MIC: ≤ 0.03 µg/mL
Klebsiella pneumoniae [23]
  ED50: 0.38 mg/kg
Acinetobacter baumannii [24]
  MIC: 0.06 µg/mL (≈ 0.0516 µM)
Pseudomonas aeruginosa [25]
  MIC: 0.06 µg/mL (≈ 0.0516 µM)
Klebsiella pneumoniae [26]
  Activity: 100%
Lipopolysaccharide (LPS) [27]
  pKd: 4.94
Acinetobacter baumannii [28]
  survival at 3 mg/kg: 100%
Escherichia coli [29]
  MIC: ≤ 0.03 µg/mL
Pseudomonas aeruginosa [30]
  MIC: 0.25 µg/mL
Klebsiella pneumoniae [31]
  MIC: 0.5 µg/mL (≈ 0.43 µM)
Pseudomonas aeruginosa [32]
  survival at 10 mg/kg: 100%
[33]
  Vd: 0.78 L/kg
Pseudomonas aeruginosa [34]
  MIC: 1 µg/mL (≈ 0.86 µM)
